Results taken from PMC3700763, “First human dose-escalation study with remogliflozin etabonate, a selective inhibitor of the sodium-glucose transporter 2 (SGLT2), in healthy subjects and in subjects with type 2 diabetes mellitus” (BMC Pharmacology & Toxicology, 2013).

Tests used:
[1] = rats; cited from earlier work
[2] = Plasma pharmacokinetics, healthy subjects; type: in vivo, human; details: human; for Cmax: read-out: Cmax; for AUC(0-inf): read-out: AUC(0–∞)
Protocol: Ten healthy subjects were evaluated in 5 study sessions, each separated by approximately 2 weeks. At each study session, subjects received either an oral dose of remogliflozin etabonate or placebo after an overnight fast. Remogliflozin etabonate doses were 20 mg, 50 mg, 150 mg, 500 mg and 1000 mg. Over the course of participation in the study, each subject received 4 of the 5 active remogliflozin etabonate doses and 1 dose of placebo (4:1 active to placebo ratio per treatment period). The available safety and PK results from each dosing period were evaluated before proceeding to the next dose level. On each dosing day, a series of 2.0 mL blood samples were collected at pre-dose and 10, 20, 30 and 45 min, and 1, 1.25, 1.5, 2, 2.5, 3, 4, 6, 8, 12, 16, and 24 h post-dose for the determination of remogliflozin etabonate, remogliflozin and GSK279782 in plasma by using high-performance liquid chromatography with tandem mass spectrometry (MS/MS) as described. Non-compartmental PK analysis of plasma concentration–time data was performed using WinNonlin Version 4.1 (Pharsight Corporation, Mountainview, CA, USA). The Cmax and Tmax were obtained directly from the data. Areas under the plasma concentration–time curves from time zero to the last quantifiable time point (AUC[0–last]) and extrapolated to infinity (AUC[0–∞]) were calculated using the log-linear trapezoidal method. The terminal plasma elimination rate-constant (λz) was estimated from log-linear regression analysis of the terminal phase of the plasma concentration–time curve, and the T½ was calculated as T½ = ln2/λz. Ratios of AUC(0–∞) remogliflozin to AUC(0–last) remogliflozin etabonate were calculated including molecular weight corrections. Safety and pharmacodynamic data were summarized using descriptive statistics. This was a small exploratory study and no formal hypothesis-testing was conducted. Dose proportionality with respect to Cmax, and AUC was assessed using the power model y = α dose^β, where y = Cmax or AUC, and α denotes a random subject effect. The exponent β in the power model will be estimated by regressing the loge-transformed PK parameters on loge dose, i.e. ln(PK parameter) = ln(α) + β * ln(dose). Dose proportionality implied that β = 1 and was assessed by estimating β and its corresponding 90% confidence interval. The power model was fitted by restricted maximum likelihood using SAS Proc Mixed.

[3] = Urine beta-2 microglobulin (exploratory renal toxicity biomarker), T2DM subjects; type: in vivo, human; details: one T2DM subject
Protocol: Urine beta-2 microglobulin levels, an exploratory biomarker that was measured as a potential early indicator of renal toxicity, were within the normal range at both baseline and after treatment for all subjects except for two subjects with diabetes.

[4] = Plasma glucose, healthy subjects; type: in vivo, human; details: mean, very similar between placebo and remogliflozin etabonate periods
Protocol: Blood samples for glucose were taken at 0 (pre-dose), and 1, 2, 4, 8 and 12 h after dosing in each treatment period (Part A). For Part B, blood samples for glucose, insulin and GLP-1 were taken at check-in on day -2, and at 0 h (pre-dose), and 0.5, 1, 1.5, 2, 4 h (prior to lunch), 4.5, 5, 6, 8, 10, 12 and 24 h after dosing on day 1 of each treatment period.
For glucose, plasma was analyzed using a YSI 2300 Glucose Analyzer (Yellow Springs International Life Sciences, Yellow Springs, OH, USA). For insulin, plasma was rapidly prepared and frozen at -70°C until analyzed by LabCorp (San Diego, CA, USA) using a chemiluminescent immunometric assay method (Siemen’s Immulite 2000 analyzer with Immulite Insulin Kit L2KIN2).

[5] = Plasma pharmacokinetics, T2DM subjects; type: in vivo, human; details: human, plasma analyte; for AUC(0-inf): read-out: AUC(0–∞) Geometric mean (CV%); for Cmax: read-out: Cmax Geometric mean (CV%); for Tmax: read-out: Tmax Median; for half-life: read-out: T½ Geometric mean (CV%) (converted)
Protocol: Six subjects with T2DM received two doses of remogliflozin etabonate and a placebo dose, in a randomized, dose escalating, crossover design, along with an oral glucose load on three study sessions separated by 7–14 days. Full PK and safety profiles were measured on Day 1 of each dosing period. The doses selected for this portion of the study, 50 mg and 500 mg, were based on data obtained in Part A. In each dosing period, subjects were assigned to active vs placebo in a 2:1 ratio. On each dosing day, a series of 2.0 mL blood samples were collected at pre-dose and 10, 20, 30 and 45 min, and 1, 1.25, 1.5, 2, 2.5, 3, 4, 6, 8, 12, 16, and 24 h post-dose for the determination of remogliflozin etabonate, remogliflozin and GSK279782 in plasma by using high-performance liquid chromatography with tandem mass spectrometry (MS/MS) as described. Non-compartmental PK analysis of plasma concentration–time data was performed using WinNonlin Version 4.1 (Pharsight Corporation, Mountainview, CA, USA). The Cmax and Tmax were obtained directly from the data. Areas under the plasma concentration–time curves from time zero to the last quantifiable time point (AUC[0–last]) and extrapolated to infinity (AUC[0–∞]) were calculated using the log-linear trapezoidal method. The terminal plasma elimination rate-constant (λz) was estimated from log-linear regression analysis of the terminal phase of the plasma concentration–time curve, and the T½ was calculated as T½ = ln2/λz. Ratios of AUC(0–∞) remogliflozin to AUC(0–last) remogliflozin etabonate were calculated including molecular weight corrections.

[6] = plasma prodrug, healthy subjects, 50 mg oral dose, geometric mean (CV%)
[7] = plasma prodrug, healthy subjects, 150 mg oral dose, geometric mean (CV%)
[8] = plasma prodrug, healthy subjects, 500 mg oral dose, geometric mean (CV%)
[9] = plasma prodrug, healthy subjects, 1000 mg oral dose, geometric mean (CV%)
[10] = remogliflozin etabonate 50 mg oral dose
[11] = remogliflozin etabonate 500 mg oral dose (prodrug n = 2)
[12] = remogliflozin etabonate 500 mg oral dose

half-life ([2]; plasma, oral, both populations, independent of dose (abstract), read-out: mean plasma T½): ~25 min | Tmax ([2]; plasma, oral, healthy subjects, 20-1000 mg, read-out: median Tmax estimates, range across doses): 31.2 to 75 min | half-life ([2]; plasma, oral, healthy subjects, 20-1000 mg, read-out: median T½ estimates, range across doses): 15.6 to 42.6 min | half-life ([2]; plasma, po, 50 mg, plasma prodrug, healthy subjects, 50 mg oral dose, geometric mean (CV%), n = 6, read-out: T½ (converted)): 21.2 min | half-life ([2]; plasma, po, 150 mg, plasma prodrug, healthy subjects, 150 mg oral dose, geometric mean (CV%), n = 6, read-out: T½ (converted)): 15.4 min | half-life ([2]; plasma, po, 500 mg, plasma prodrug, healthy subjects, 500 mg oral dose, geometric mean (CV% 27), n = 4, read-out: T½ (converted)): 15.8 min | half-life ([2]; plasma, po, 1000 mg, plasma prodrug, healthy subjects, 1000 mg oral dose, geometric mean (CV% 56), n = 7, read-out: T½ (converted)): 42.4 min | AUC(0-t) ([2]; plasma prodrug, healthy subjects, 20 mg oral dose, geometric mean (CV%), n = 5): 1.61 ng·h/mL | Cmax ([2]; plasma prodrug, healthy subjects, 20 mg oral dose, geometric mean (CV%)): 1.89 ng/mL | Tmax ([2]; plasma prodrug, healthy subjects, 20 mg oral dose, median, read-out: Tmax): 37.5 min | AUC(0-t) [2, 6]: 3.56 ng·h/mL | AUC(0-inf) ([2]; plasma prodrug, healthy subjects, 50 mg oral dose, geometric mean (CV%), n = 6): 3.7 ng·h/mL | Cmax [2, 6]: 4.98 ng/mL | Tmax ([2]; plasma prodrug, healthy subjects, 50 mg oral dose, median, read-out: Tmax): 37.5 min | AUC(0-t) [2, 7]: 9.51 ng·h/mL | AUC(0-inf) ([2]; plasma prodrug, healthy subjects, 150 mg oral dose, geometric mean (CV%), n = 6): 9.77 ng·h/mL | Cmax [2, 7]: 17.6 ng/mL | Tmax ([2]; plasma prodrug, healthy subjects, 150 mg oral dose, median, read-out: Tmax): 30.9 min | AUC(0-t) [2, 8]: 35.4 ng·h/mL | AUC(0-inf) ([2]; plasma prodrug, healthy subjects, 500 mg oral dose, geometric mean (CV%), n = 4): 36.8 ng·h/mL | Cmax [2, 8]: 41.6 ng/mL | Tmax ([2]; plasma prodrug, healthy subjects, 500 mg oral dose, median, read-out: Tmax): 75 min | AUC(0-t) [2, 9]: 107 ng·h/mL | AUC(0-inf) ([2]; plasma prodrug, healthy subjects, 1000 mg oral dose, geometric mean (CV%), n = 7): 126 ng·h/mL | Cmax [2, 9]: 144 ng/mL | Tmax ([2]; plasma prodrug, healthy subjects, 1000 mg oral dose, median, read-out: Tmax): 37.5 min | AUC(0-inf) [5, 10]: 8.91 ng·h/mL | Cmax [5, 10]: 9.56 ng/mL | Tmax [5, 10]: 34.8 min | half-life [5, 10]: 36.6 min | AUC(0-inf) [5, 11]: 91.9 ng·h/mL | half-life [5, 11]: 49.2 min | Cmax [5, 12]: 83.9 ng/mL | Tmax [5, 12]: 45 min
Compound: CCOC(=O)OC[C@H]1O[C@@H](Oc2nn(C(C)C)c(C)c2Cc2ccc(OC(C)C)cc2)[C@H](O)[C@@H](O)[C@@H]1O [Remogliflozin etabonate, remogliflozin etabonate]
Urinary glucose excretion [1]: concentration-dependent increase | Time for drug-related beta-2 microglobulin elevation to return to normal ([3]; 500 mg): ≤ 4 days | Urine beta-2 microglobulin, elevation ([3]; 11 days after 500 mg, attributed by investigator to other concomitant disease): 2.5 µg/mL | Urine beta-2 microglobulin, drug-related elevation ([3]; day 1 after 500 mg, normal <0.3 μg/mL): 1.62 µg/mL | Plasma glucose AUC 0–4 h [4]: approximately 18 mmol•h/L | Plasma glucose AUC 0–12 h [4]: 55 to 59 mmol·h/L
